ChEMBL document CHEMBL1201862, “PubChem BioAssay data set” (2004)
The source made the active and inactive calls.

Key:
[1] = molecular target: T1, RNA-binding protein pos-1 (Caenorhabditis elegans, UniProt G5EF15); assay: inhibitors of POS-1/mex-3 RNA binding, dose response, biochemical, fluorescence polarization (AID 1964);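 also: purified POS-1 fused to maltose binding protein made in E. coli; potency of compounds blocking POS-1 binding to fluorescent RNA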
T1 sequence (G5EF15 whole entry): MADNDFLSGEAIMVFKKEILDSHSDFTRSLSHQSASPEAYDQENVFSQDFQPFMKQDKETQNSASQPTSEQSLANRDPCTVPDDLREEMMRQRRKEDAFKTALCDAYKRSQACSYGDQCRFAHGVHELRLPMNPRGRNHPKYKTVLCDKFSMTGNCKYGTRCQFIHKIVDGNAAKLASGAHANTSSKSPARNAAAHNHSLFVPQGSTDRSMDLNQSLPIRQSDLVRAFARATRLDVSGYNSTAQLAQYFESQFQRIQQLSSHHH

[2] = molecular target: T2, Zinc finger protein mex-5 (Caenorhabditis elegans, UniProt Q9XUB2); assay: MEX-5/TCR-2 RNA interaction inhibitors, dose response, biochemical, C. elegans, fluorescence polarization (AID 1960)
T2 sequence (Q9XUB2 whole entry): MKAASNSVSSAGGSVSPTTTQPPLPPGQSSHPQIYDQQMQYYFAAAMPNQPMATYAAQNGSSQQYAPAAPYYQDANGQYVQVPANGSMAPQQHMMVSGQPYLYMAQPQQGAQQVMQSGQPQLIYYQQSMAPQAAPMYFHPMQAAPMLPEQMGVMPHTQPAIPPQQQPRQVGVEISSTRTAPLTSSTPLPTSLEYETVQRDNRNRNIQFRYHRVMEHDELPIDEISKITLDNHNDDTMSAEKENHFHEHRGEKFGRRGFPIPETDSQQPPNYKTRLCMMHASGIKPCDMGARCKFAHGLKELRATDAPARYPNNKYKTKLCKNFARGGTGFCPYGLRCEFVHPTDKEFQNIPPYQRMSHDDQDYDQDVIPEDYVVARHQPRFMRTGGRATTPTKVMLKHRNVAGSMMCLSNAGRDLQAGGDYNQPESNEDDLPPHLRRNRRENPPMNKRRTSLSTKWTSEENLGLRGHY

[3] = molecular target: T3, Heat shock factor protein 1 (Mus musculus, UniProt P38532); assay: HSF1 potentiators in luciferase reporter cells, confirmation, cell-based, NIH3T3, luminescence, dose retest (AID 435004); format: functional;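 also: stress induced by proteasome inhibitor MG132 added 30 min after compound; luciferase reporter driven by HSF1 response element in NIH3T3 cells; actives raise luminescence as potentiators of the MG132 stress response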
T3 sequence (P38532 whole entry): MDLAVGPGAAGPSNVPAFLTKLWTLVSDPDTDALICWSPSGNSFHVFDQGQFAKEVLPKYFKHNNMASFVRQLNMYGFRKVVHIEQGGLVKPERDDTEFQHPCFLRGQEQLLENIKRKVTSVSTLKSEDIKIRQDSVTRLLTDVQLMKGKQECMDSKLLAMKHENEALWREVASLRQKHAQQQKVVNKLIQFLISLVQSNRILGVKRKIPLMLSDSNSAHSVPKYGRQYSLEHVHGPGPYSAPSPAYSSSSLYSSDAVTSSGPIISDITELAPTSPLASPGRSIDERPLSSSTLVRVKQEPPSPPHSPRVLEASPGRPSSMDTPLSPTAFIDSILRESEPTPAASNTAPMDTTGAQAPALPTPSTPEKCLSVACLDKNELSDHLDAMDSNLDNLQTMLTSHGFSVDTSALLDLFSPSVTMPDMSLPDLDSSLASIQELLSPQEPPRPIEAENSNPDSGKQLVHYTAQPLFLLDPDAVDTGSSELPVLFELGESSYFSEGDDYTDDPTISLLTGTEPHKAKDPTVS

[4] = molecular target: T4, Corticotropin-releasing factor receptor 2/Corticotropin-releasing factor-binding protein (Homo sapiens, UniProt P24387+Q13324); assay: activators of CRF receptor 2 with binding protein – uHTS hits, confirmation (AID 602473); format: functional; conditions: read-out: EC50_Mean
T4 sequence (Q13324 whole entry): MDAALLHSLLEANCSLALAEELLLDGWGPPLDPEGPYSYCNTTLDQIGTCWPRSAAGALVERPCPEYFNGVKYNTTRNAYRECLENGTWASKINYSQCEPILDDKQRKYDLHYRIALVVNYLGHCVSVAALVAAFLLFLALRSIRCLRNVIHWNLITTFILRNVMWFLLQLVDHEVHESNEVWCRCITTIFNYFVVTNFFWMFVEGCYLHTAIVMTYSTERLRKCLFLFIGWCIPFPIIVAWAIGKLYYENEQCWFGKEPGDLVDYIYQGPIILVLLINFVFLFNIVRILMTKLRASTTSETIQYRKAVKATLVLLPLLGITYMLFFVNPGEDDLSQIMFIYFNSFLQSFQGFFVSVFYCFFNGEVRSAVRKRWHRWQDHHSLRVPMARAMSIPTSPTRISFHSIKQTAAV
T4 sequence (P24387 whole entry): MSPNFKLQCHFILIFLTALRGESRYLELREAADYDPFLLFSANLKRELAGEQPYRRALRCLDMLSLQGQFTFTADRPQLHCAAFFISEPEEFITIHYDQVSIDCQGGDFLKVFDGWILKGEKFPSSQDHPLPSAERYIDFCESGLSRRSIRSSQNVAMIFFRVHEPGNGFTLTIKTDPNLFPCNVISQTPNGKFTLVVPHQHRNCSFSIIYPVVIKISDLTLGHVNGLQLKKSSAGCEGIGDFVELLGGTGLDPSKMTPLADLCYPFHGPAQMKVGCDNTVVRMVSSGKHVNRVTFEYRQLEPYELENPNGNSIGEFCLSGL

[5] = growth suppression of PTEN-null colon cells, dose response, cell-based, HCT116 PTEN knockout (AID 1047); format: functional;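 also: HCT116 colon tumor cells with PTEN knocked out; cells exposed to compound for 60 hours before readout; potency for loss of cell viability measured by luminescence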
[6] = growth suppression of beta-catenin-knockout colon cells, dose response, cell-based, HCT116, human colon tumor (AID 1045); format: functional;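 also: HCT116 colon tumor cells with beta catenin knocked out; cells exposed to compound for 60 hours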
[7] = molecular target: T5, Replicative DNA helicase DnaB (Mycobacterium tuberculosis, UniProt P9WMR3); assay: DnaB intein splicing inhibitors, dose response, biochemical, cell-free fluorescence (AID 449749); format: functional
T5 sequence (P9WMR3 whole entry): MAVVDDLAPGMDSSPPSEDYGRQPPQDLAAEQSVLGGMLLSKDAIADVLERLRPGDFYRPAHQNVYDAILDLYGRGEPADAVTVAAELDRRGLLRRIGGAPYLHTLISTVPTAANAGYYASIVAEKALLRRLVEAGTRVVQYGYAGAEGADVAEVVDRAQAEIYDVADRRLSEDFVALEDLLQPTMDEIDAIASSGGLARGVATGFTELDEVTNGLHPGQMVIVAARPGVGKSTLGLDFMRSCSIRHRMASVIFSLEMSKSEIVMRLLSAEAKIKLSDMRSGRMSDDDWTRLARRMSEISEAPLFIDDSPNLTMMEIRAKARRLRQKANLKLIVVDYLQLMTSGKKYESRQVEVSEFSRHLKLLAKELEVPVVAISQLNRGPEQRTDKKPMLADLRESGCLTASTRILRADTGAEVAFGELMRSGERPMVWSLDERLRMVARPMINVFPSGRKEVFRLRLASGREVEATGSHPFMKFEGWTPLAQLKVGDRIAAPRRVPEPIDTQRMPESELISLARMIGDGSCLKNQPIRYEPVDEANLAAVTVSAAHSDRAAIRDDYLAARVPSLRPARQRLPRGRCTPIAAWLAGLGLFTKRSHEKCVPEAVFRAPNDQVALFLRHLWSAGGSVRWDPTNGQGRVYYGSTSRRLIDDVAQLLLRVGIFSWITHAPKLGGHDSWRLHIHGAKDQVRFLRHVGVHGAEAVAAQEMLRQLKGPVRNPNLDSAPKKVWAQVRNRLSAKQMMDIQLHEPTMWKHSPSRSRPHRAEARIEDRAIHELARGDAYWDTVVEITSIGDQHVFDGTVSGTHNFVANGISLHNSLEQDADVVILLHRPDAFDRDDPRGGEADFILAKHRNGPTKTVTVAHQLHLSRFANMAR

Protein RecA = molecular target: T6, Protein RecA (Mycobacterium tuberculosis, UniProt P9WHJ3); assay: Fluorescence Cell-Free Homogeneous Dose Retest to Identify Inhibitors of RecA-Intein Splicing Activity. [Related pubchem assays (depositor defined):AID2097, AID2223, AID489010, AID492950]; format: functional
T6 sequence (P9WHJ3 whole entry): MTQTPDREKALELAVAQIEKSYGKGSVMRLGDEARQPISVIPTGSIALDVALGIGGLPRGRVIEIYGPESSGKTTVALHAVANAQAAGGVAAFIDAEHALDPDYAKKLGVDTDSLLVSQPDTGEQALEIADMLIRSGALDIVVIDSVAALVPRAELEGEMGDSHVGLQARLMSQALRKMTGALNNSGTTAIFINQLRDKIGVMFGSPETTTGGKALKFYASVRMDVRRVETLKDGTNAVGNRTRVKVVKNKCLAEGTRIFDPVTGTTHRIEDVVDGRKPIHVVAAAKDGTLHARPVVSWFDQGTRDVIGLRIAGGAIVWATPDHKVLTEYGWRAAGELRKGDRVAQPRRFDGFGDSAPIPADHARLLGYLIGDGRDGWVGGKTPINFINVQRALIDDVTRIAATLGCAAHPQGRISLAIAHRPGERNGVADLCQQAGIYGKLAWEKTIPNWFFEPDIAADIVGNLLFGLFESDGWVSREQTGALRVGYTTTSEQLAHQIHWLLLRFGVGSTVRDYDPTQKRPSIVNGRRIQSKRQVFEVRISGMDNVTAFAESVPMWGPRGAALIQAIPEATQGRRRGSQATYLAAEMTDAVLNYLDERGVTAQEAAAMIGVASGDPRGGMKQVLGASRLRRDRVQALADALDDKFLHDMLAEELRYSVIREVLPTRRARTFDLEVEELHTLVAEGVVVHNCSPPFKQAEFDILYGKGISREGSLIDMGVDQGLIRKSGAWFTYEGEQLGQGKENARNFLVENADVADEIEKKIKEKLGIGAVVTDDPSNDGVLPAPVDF

Cytochrome P450 2C19 = Cytochrome P450 2C19 (Homo sapiens, UniProt P33261); assay: Cytochrome panel assay with activity outcomes. Panel member name: p450-cyp2c19 Compounds with AC50 equal or less than 10 uM are considered active; format: functional; conditions: read-out: AC50
Cytochrome P450 2C19, sequence (P33261 whole entry): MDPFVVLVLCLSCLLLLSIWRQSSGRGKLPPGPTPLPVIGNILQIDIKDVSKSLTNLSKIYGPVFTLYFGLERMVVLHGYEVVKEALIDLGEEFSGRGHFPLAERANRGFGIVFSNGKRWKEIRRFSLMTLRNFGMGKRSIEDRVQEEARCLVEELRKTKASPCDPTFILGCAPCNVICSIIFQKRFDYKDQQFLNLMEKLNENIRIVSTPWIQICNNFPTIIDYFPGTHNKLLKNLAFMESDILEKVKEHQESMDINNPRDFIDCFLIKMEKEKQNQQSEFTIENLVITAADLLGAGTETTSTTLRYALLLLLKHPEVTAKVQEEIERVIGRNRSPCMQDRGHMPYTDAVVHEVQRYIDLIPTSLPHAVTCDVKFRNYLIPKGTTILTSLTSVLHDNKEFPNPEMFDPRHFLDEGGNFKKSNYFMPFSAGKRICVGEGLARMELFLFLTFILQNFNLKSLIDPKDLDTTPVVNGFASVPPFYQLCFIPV

[8] = inhibitors of intracellular T. cruzi replication, confirmation, NIH3T3 host cells, beta-gal luminescence (AID 2044); format: functional, cell-based;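 also: intracellular parasites grown in NIH/3T3 mouse fibroblasts as host cells; luminescent beta-galactosidase reporter signal from transgenic T. cruzi replicating inside host cells; inhibitors lower the luminescence signal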
[9] = cytotoxicity toward NIH3T3 fibroblasts, dose response, counter-screen, cell-based, ATP luminescence, mouse fibroblasts (AID 2010); format: functional;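 also: cells exposed to compound for about 90 hours before reading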
Cytochrome P450 2D6 = Cytochrome P450 2D6 (Homo sapiens, UniProt P10635);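 also: CYP2D6 member of a cytochrome P450 panel assay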
Cytochrome P450 2D6, sequence (P10635 whole entry): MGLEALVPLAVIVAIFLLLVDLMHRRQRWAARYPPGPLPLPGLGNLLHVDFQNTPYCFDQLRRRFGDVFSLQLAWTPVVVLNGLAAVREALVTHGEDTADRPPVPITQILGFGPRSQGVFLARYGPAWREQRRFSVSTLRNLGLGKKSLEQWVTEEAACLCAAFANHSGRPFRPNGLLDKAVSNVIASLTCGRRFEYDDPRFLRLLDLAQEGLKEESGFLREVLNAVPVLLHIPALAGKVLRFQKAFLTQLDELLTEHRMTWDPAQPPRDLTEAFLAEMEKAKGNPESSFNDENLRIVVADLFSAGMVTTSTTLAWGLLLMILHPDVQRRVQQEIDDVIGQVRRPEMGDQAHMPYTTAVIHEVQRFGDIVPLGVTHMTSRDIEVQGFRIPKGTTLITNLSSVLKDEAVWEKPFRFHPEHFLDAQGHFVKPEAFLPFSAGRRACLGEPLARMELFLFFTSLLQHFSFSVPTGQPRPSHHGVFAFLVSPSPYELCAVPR

Cytochrome P450 1A2 = molecular target: T7, Cytochrome P450 1A2 (Homo sapiens, UniProt P05177);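 also: PubChem cytochrome P450 panel assay, CYP1A2 panel member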
T7 sequence (P05177 whole entry): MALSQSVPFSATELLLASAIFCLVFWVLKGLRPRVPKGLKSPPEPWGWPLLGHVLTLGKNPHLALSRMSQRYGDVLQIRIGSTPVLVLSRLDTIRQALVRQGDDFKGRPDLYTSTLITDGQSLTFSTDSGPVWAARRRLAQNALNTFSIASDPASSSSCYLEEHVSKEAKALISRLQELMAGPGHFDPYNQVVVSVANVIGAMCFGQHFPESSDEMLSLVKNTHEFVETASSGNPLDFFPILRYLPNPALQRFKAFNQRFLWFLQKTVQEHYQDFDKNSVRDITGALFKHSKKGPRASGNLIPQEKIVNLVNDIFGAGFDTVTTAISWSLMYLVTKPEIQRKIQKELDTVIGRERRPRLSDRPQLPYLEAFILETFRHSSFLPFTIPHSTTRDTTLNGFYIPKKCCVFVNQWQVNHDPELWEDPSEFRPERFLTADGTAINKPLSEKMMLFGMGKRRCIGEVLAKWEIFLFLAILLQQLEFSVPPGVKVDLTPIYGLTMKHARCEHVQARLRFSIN

[10] = Luminescence Cell-Based Dose Retest to Confirm Inhibitors of Cancer Stem Cells. [Related pubchem assays (depositor defined):AID2717, AID2721]; format: functional; conditions: Homo sapiens

## CC1=CC(C)(C)N2C(=O)C3(C(C#N)=C(N)OC4=C3C(=O)CC(C)(C)C4)c3cccc1c32 (configuration not stated)
[1]
  EC50: > 300 µM (not active)
[2]
  EC50: > 300 µM (not active)

## CN(C)c1ccc(N/C=C2/C(=O)NC(=O)N(CCC3=CCCCC3)C2=O)cc1
[1]
  EC50: > 300 µM (not active)
[2]
  EC50: > 300 µM (not active)

## CCOC(=O)C1=NN(C(=O)c2ccccc2)C(O)(c2ccc(C)cc2)C1 (configuration not stated)
[3]
  EC50: > 260 µM (inactive)
[4]
  EC50: 13.5 µM (active)

## COC(=O)C1=C(C)N(c2ccccc2)/C(=C/c2ccco2)C1=O
[1]
  EC50: 99 µM (active)
[2]
  EC50: 5.06 µM (active)

## CCOC(=O)C1=C(N)Oc2c(c(O)nc3ccccc23)C1c1ccccc1 (configuration not stated)
[5]
  EC50: 53.5 µM (active)
[6]
  EC50: 94.3 µM (active)

## CCOC(=O)c1nn(-c2ccc(C)cc2)c2nc(Nc3ccccc3)cc(=O)n12
[1]
  EC50: 78.2 µM (active)
[2]
  EC50: > 300 µM (not active)

## O=C(NCc1ccccc1)C1Nc2ccc(OC(F)(F)F)cc2C2C=CCC12 (configuration not stated)
[1]
  EC50: > 300 µM (not active)
[2]
  EC50: > 300 µM (not active)

## COc1cccc(-n2nc(C#N)c(Cl)cc2=O)c1
[3]
  EC50: 10.7 µM (active)
[7]
  AC50: 2.49 µM (active)
Protein RecA
  EC50: 4.38 µM (active)

## FC(F)(F)c1nnc(-c2ccccc2)nc1Sc1ccccc1
[5]
  EC50: 18.7 µM (active)
[6]
  EC50: 17.3 µM (active)
[3]
  EC50: 4.22 µM (inconclusive)
Cytochrome P450 2C19
  AC50: 0.00355 µM (inconclusive)
[7]
  AC50: 19.3 µM (active)
Protein RecA
  EC50: 9.56 µM (active)

## Cc1ccc(-c2nc(NC(=O)c3ccc(S(=O)(=O)N(CCC#N)CCC#N)cc3)sc2-c2ccccc2)cc1
[8]
  EC50: 2.02 µM (active)
[5]
  EC50: 17 µM (active)
[9]
  EC50: > 60 µM (not active)
[6]
  EC50: 17.3 µM (active)

## O=P(Nc1ccccc1)(Nc1ccccc1)Oc1cccc(Cl)c1
[5]
  EC50: 134 µM (active)
[6]
  EC50: 239 µM (active)
Cytochrome P450 2D6
  AC50: 15.8 µM (inconclusive)
Cytochrome P450 1A2
  AC50: 15.8 µM (inconclusive)

## Cc1nnc(S/C(=C/c2ccc(-c3cc(Cl)ccc3C)o2)C(=O)O)[nH]1
[1]
  EC50: 38.4 µM (active)
[2]
  EC50: 31 µM (active)

## Cc1c(C(=O)O)cccc1-n1c(C)cc(/C=N/NC(=O)c2cc3ccccc3o2)c1C
[1]
  EC50: > 300 µM (not active)
[2]
  EC50: > 300 µM (not active)

## Clc1ccc(CO/N=C/c2c(-c3ccccc3)nc3n2CCS3)c(Cl)c1
[10]
  AC50: 2.22 µM (active)
[3]
  EC50: > 260 µM (inactive)
